Source: patent publication US10544138B2, “Tricyclic kinase inhibitors of MELK and methods of use” (Dana-Farber Cancer Institute, Inc., priority 2015, dated 2020)

Tests used:
U2OS-(H2B-GFP) cells = assay: Mitotic slippage, time-lapse imaging of U2OS-(H2B-GFP) cells; assay type: cell-based, human; conditions: 5 μM, 4 h exposure
Protocol: Mitotic cells were treated with THZ-4-63-1 at indicated concentrations for 4 h. Cells were collected for immunoblotting. Panel B contains time-lapse images of U2OS-(H2B-GFP) cells treated with THZ-4-63-1 (5 μM). […] Panel C contains blots showing proteasome-mediated degradation of Cyclin B1, Aurora B and MELK in THZ-4-63-1-induced mitotic slippage. Mitotic cells were treated as in Panel A with THZ-4-63-1 (5 μM), or MG132 (10 μM), or both for 4 h. Panel D contains a graph showing quantification of cell proliferation in the indicated breast cancer cell lines, which were treated with vehicle control or THZ-4-63-1 for one week (Top) and also contains bright-field images acquired from control cells or cells treated with THZ-4-63-1 (111 nM) (Bottom). […] Cells were treated with indicated drugs, and harvested in ten days for quantification of cell growth. The bold curve depicts the theoretic prediction of an additive action between paclitaxel and THZ-4-63-1.
Centromeric localization of CPC has been implicated in checkpoint signaling^8. […] We further found an impaired spindle checkpoint in cells with MELK knockdown (FIG. 9C).

BRSK1 = biological target: T1, BRSK1 (Homo sapiens, UniProt Q8TDC3); assay: Recombinant AMPK family kinase assay, BRSK1; assay type: biochemical; conditions: recombinant kinases
T1 sequence (Q8TDC3 1-778): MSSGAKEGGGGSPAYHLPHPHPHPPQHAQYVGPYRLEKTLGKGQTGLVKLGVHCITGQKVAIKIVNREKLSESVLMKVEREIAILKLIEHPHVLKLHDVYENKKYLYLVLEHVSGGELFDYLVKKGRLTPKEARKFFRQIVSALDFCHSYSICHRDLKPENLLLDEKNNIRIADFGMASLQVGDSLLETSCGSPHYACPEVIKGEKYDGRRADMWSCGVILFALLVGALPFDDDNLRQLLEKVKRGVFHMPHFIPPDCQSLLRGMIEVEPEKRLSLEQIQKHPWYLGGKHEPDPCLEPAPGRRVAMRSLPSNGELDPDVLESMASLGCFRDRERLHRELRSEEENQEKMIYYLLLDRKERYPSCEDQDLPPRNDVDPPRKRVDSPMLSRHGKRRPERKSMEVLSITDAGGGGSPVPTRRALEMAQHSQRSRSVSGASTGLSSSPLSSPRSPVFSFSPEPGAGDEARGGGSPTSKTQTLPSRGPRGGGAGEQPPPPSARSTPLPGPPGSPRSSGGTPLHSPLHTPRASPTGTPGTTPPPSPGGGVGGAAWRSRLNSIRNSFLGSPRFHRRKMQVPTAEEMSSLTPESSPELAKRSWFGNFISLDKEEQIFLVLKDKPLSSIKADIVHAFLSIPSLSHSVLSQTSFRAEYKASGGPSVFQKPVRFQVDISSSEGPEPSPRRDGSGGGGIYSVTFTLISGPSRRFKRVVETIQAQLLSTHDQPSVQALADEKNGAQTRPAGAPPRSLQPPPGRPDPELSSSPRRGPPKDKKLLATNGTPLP
Protocol: […] assays were performed with recombinant protein of the indicated mitotic kinase (left) and AMPK family kinases (right) in the presence of THZ-4-63-1. […] Cells were treated with nocodazole (100 ng/ml) for 18 h or not treated (Asyn., asynchronous). Nocodazole-arrested mitotic cells (M) were isolated via shake-off. The attached cells enriched in G2 phase (G2) were harvested. A portion of the mitotic cells were washed off nocodazole and released into G1 phase after 4 hours of incubation (G1). […] In Panel D, mitotic lysates were prepared from the indicated cells, and treated with λ-phosphatase at 30° C. In Panel E, nocodazole-arrested mitotic cells were treated with increasing concentration of THZ-4-63-1 for 30 min. Cell lysates were subjected to immunoblotting.
To discover a selective MELK inhibitor, a few molecule scaffolds with the potential of binding to MELK were identified, including 2,4-disubstituted pyrimidines and benzonaphthyridinones. […] To investigate if THZ-4-63-1 confers selective inhibition on MELK, we tested its effect on other mitotic kinases. In assays using recombinant kinases, MELK kinase activity was 20-fold more sensitive to THZ-4-63-1, than that of Aurora A, Aurora B, CDK1, or PLK1 (FIG. 1B).

Selectivity for MELK over BRSK1 (BRSK1): preferentially targets MELK
Compound: CN(C)Cc1ccc(-n2c(=O)ccc3cnc4ccc(-c5cc(Cl)c(O)c(Cl)c5)cc4c32)cc1 [THZ-4-63-1]
Cells undergoing mitotic slippage (U2OS-(H2B-GFP) cells): nearly half
